Experiments:
[1] = xn = mol fraction of the nth substance listed; settings: 100 kPa, Liquid; for speed of sound: Frequency=3 MHz, Sing-around technique in a fixed-path interferometer; for mass density: Vibrating tube method
[2] = refractive index (Na D-line) (dimensionless); xn = mol fraction of the nth substance listed; settings: 100 kPa, Liquid, Standard Abbe refractometry

CCCNCCC [dipropylamine] + CN(C)C=O
Settings | mass density, [1] [kg/m3] | refractive index, [2] | speed of sound, [1] [m/s]
293.15 K, x2 = 0.06 | 745.894 | 1.40543 | 1218.2
293.15 K, x2 = 0.1071 | 752.141 | – | 1225
293.15 K, x2 = 0.1556 | – | 1.40725 | –
293.15 K, x2 = 0.156 | 758.933 | – | 1232.9
293.15 K, x2 = 0.1975 | 764.87 | – | 1239.3
293.15 K, x2 = 0.249 | 772.54 | – | 1248.1
293.15 K, x2 = 0.2614 | – | 1.40952 | –
293.15 K, x2 = 0.3099 | 782.194 | – | 1259.4
293.15 K, x2 = 0.3463 | 788.151 | 1.4114 | 1266.2
293.15 K, x2 = 0.3985 | 797.199 | 1.41266 | 1276.9
293.15 K, x2 = 0.448 | 806.192 | – | 1287.6
293.15 K, x2 = 0.4554 | – | 1.41402 | –
293.15 K, x2 = 0.4974 | 815.656 | – | 1299.2
293.15 K, x2 = 0.5487 | 825.989 | 1.41645 | 1312
293.15 K, x2 = 0.6018 | – | 1.41789 | –
293.15 K, x2 = 0.6562 | 849.651 | – | 1342.1
293.15 K, x2 = 0.7033 | – | 1.42079 | –
293.15 K, x2 = 0.7514 | 873.097 | – | 1373.4
293.15 K, x2 = 0.8216 | 892.212 | 1.42444 | 1399.8
293.15 K, x2 = 0.8501 | 900.523 | – | 1411.2
293.15 K, x2 = 0.8844 | – | 1.42653 | –
293.15 K, x2 = 0.9025 | 916.508 | – | 1433.3
293.15 K, x2 = 0.9486 | 931.283 | 1.42882 | 1453.4
298.15 K, x2 = 0.0626 | 741.577 | 1.40259 | 1196.9
298.15 K, x2 = 0.1083 | 747.697 | 1.40358 | 1204
298.15 K, x2 = 0.1544 | 754.025 | 1.40443 | 1211.2
298.15 K, x2 = 0.2541 | 768.732 | 1.40662 | 1228.1
298.15 K, x2 = 0.3148 | 778.293 | 1.40796 | 1239.3
298.15 K, x2 = 0.3609 | 786.012 | 1.40908 | 1248.3
298.15 K, x2 = 0.4077 | 794.223 | 1.41017 | 1258.2
298.15 K, x2 = 0.4966 | 810.8 | 1.41247 | 1278.5
298.15 K, x2 = 0.5386 | 819.199 | – | 1288.9
298.15 K, x2 = 0.6082 | 833.997 | – | 1307.9
298.15 K, x2 = 0.6527 | 844.084 | 1.41673 | 1321.1
298.15 K, x2 = 0.7477 | 867.448 | 1.4196 | 1352.4
298.15 K, x2 = 0.8063 | 883.226 | 1.42147 | 1374
298.15 K, x2 = 0.902 | 911.457 | 1.42478 | 1413.1
298.15 K, x2 = 0.9482 | 926.367 | 1.42645 | 1433.5
303.15 K, x2 = 0.0453 | 734.885 | 1.39971 | 1174
303.15 K, x2 = 0.1034 | 742.55 | 1.40091 | 1183
303.15 K, x2 = 0.1963 | 755.529 | 1.40293 | 1198
303.15 K, x2 = 0.2582 | 764.775 | 1.40419 | 1208.8
303.15 K, x2 = 0.3559 | 780.614 | 1.40647 | 1227.6
303.15 K, x2 = 0.4099 | 790.03 | 1.40779 | 1239
303.15 K, x2 = 0.4565 | 798.539 | – | 1249.4
303.15 K, x2 = 0.5415 | 815.193 | – | 1270.3
303.15 K, x2 = 0.6016 | 827.909 | 1.41295 | 1286.6
303.15 K, x2 = 0.6517 | 839.209 | – | 1301.4
303.15 K, x2 = 0.7502 | 863.388 | 1.41745 | 1334
303.15 K, x2 = 0.8498 | 890.941 | 1.4207 | 1372
303.15 K, x2 = 0.9 | 906.165 | 1.42246 | 1393.2
303.15 K, x2 = 0.9498 | 922.203 | 1.42417 | 1415.2
